Consider 22 compounds from patent US11111242B2, “Pyrrolo[2,3-d]pyrimidinyl, pyrrolo[2,3-b]pyrazinyl and pyrrolo[2,3-d]pyridinyl acrylamides” (Pfizer Inc., priority 2013, dated 2021).

Experiment [1] relates to IL-15 induced STAT5 phosphorylation in Human Whole Blood (total lymphocytes). The experiment can be described thus: HWB IL-15 Induced STAT5 Phosphorylation Assay. The conditions noted are these: Lymphocyte, IL-15 stimulated, read-out: HWB-IL15-pSTAT5 IC50. In kind it is cell-based.
For experiment [2], the system named is IL-15 induced P-STAT5 in human PBMC (total lymphocytes). The experiment can be described thus: PBMC IL-15 Induced P-STAT5. The following applies: IL-15 stimulated, read-out: PBMC IL15-pSTAT5 IC50. In kind it is cell-based. In short, it runs like this:
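Thawed human PBMC in RPMI, preincubated 30 min at 37 °C, then IL-15 stimulated. Cells methanol-permeabilized (90%, on ice 20 min) and stained for phospho-STAT5. Read by flow cytometry, gated on total lymphocytes.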

Like-named read-outs stand apart in the source and are kept apart here.

Consider `C=CC(=O)N1CCC(Nc2cnc3[nH]cc(C(=O)N[C@@H](C)COC)c3n2)CC1` [Example 277, 2-[(1-acryloylpiperidin-4-yl)amino]-N-[(2S)-1-methoxypropan-2-yl]-5H-pyrrolo[2,3-b]pyrazine-7-carboxamide], for which the IC50 in experiment [1] was determined as 83.2 nM; in experiment [2] (Homo sapiens, PBMC) it was 103 nM.

On to `C=CC(=O)N1CCC(Nc2cnc3[nH]cc(C(=O)NC4CCCCC4)c3n2)CC1` [Example 278, 2-[(1-acryloylpiperidin-4-yl)amino]-N-cyclohexyl-5H-pyrrolo[2,3-b]pyrazine-7-carboxamide], for which the figures for the half-inhibitory concentration (IC50) in experiment [1] and in experiment [2] were 362 nM and 57.4 nM, respectively.

`C=CC(=O)N1CCC(Nc2cnc3[nH]cc(C(=O)NC4CCC4)c3n2)CC1` [Example 280, 2-[(1-acryloylpiperidin-4-yl)amino]-N-cyclobutyl-5H-pyrrolo[2,3-b]pyrazine-7-carboxamide]: the half-inhibitory concentration (IC50) came out at 376 nM in experiment [1] and 39.4 nM in experiment [2].

Turning to `C=CC(=O)N1CCC(Nc2cnc3[nH]cc(C(=O)NC45CC(C4)C5)c3n2)CC1` [Example 281, 2-[(1-acryloylpiperidin-4-yl)amino]-N-(bicyclo[1.1.1]pent-1-yl)-5H-pyrrolo[2,3-b]pyrazine-7-carboxamide], the IC50 in experiment [1] was determined as 489 nM; in experiment [2] (Homo sapiens, PBMC) it was 31.5 nM.

Consider `C=CC(=O)N1CCC(Nc2cnc3[nH]cc(C(=O)NCC(C)(F)F)c3n2)CC1` [Example 282, 2-[(1-acryloylpiperidin-4-yl)amino]-N-(2,2-difluoropropyl)-5H-pyrrolo[2,3-b]pyrazine-7-carboxamide], for which the values for the 50% inhibitory concentration (IC50) in experiment [1] and in experiment [2] were 432 nM and 71.7 nM, respectively.

For `C=CC(=O)N1CCC(Nc2cnc3[nH]cc(C(=O)NC4CCCC4)c3n2)CC1` [Example 283, 2-[(1-acryloylpiperidin-4-yl)amino]-N-cyclopentyl-5H-pyrrolo[2,3-b]pyrazine-7-carboxamide], the IC50 was 700 nM in experiment [1] and 58.4 nM in experiment [2] (Homo sapiens, PBMC).

Take `C=CC(=O)N1CCC(Nc2cnc3[nH]cc(C(=O)N[C@@H](C)CC)c3n2)CC1` [Example 285, 2-[(1-acryloylpiperidin-4-yl)amino]-N-[(2S)-butan-2-yl]-5H-pyrrolo[2,3-b]pyrazine-7-carboxamide]: the concentration for half-maximal inhibition (IC50) in experiment [1] came to 373 nM; in experiment [2] it was 31.4 nM.

Consider `C=CC(=O)N1CCC(Nc2cnc3[nH]cc(C(=O)NC(C)C4CC4)c3n2)CC1` (centres unmarked) [Example 288, 2-[(1-acryloylpiperidin-4-yl)amino]-N-(1-cyclopropylethyl)-5H-pyrrolo[2,3-b]pyrazine-7-carboxamide], for which the concentration for half-maximal inhibition (IC50) in experiment [1] is 358 nM; in experiment [2] (Homo sapiens, PBMC), 44.4 nM.

As to `C=CC(=O)N1CCC(Nc2cnc3[nH]cc(C(=O)N[C@H](C)CC)c3n2)CC1` [Example 289, 2-[(1-acryloylpiperidin-4-yl)amino]-N-[(2R)-butan-2-yl]-5H-pyrrolo[2,3-b]pyrazine-7-carboxamide], the IC50 in experiment [1] is 106 nM; in experiment [2] it was 37.5 nM.

`C=CC(=O)N1CCN(c2cnc3[nH]cc(C(=O)NC(C)C)c3n2)CC1(C)C` [Example 293, 2-(4-acryloyl-3,3-dimethylpiperazin-1-yl)-N-(propan-2-yl)-5H-pyrrolo[2,3-b]pyrazine-7-carboxamide]: the IC50 in experiment [1] is 4490 nM; in experiment [2] (Homo sapiens, PBMC) it was 300 nM.

For the compound `C=CC(=O)N1CCN(c2cnc3[nH]cc(C(=O)NC(C)C)c3n2)C[C@@H]1C` [Example 295, 2-[(3S)-4-acryloyl-3-methylpiperazin-1-yl]-N-(propan-2-yl)-5H-pyrrolo[2,3-b]pyrazine-7-carboxamide], the half-inhibitory concentration (IC50) in experiment [1] came out at 2670 nM; in experiment [2], 334 nM.

As to `C=CC(=O)N1CCN(c2cnc3[nH]cc(C(=O)NC(C)C)c3n2)C[C@@H]1CC` [Example 299, 2-[(3S)-4-acryloyl-3-ethylpiperazin-1-yl]-N-(propan-2-yl)-5H-pyrrolo[2,3-b]pyrazine-7-carboxamide], the IC50 in experiment [1] turned out to be 1380 nM; in experiment [2], 225 nM.

For the compound `C=CC(=O)N1C[C@@H]2C[C@H]1CN2c1cnc2[nH]cc(C(=O)NC(C)C)c2n1` [Example 300, 2-[(1S,4S)-5-acryloyl-2,5-diazabicyclo[2.2.1]hept-2-yl]-N-(propan-2-yl)-5H-pyrrolo[2,3-b]pyrazine-7-carboxamide], the IC50 in experiment [1] stood at 3400 nM; in experiment [2] it was 714 nM.

`C=CC(=O)N1[C@@H]2CC[C@H]1CN(c1cnc3[nH]cc(C(=O)NC(C)C)c3n1)C2` [Example 301, 2-[(1R,5S)-8-acryloyl-3,8-diazabicyclo[3.2.1]oct-3-yl]-N-(propan-2-yl)-5H-pyrrolo[2,3-b]pyrazine-7-carboxamide]: the IC50 worked out at 4900 nM in experiment [1] and 408 nM in experiment [2].

For `C=CC(=O)N1CC[C@@H](Nc2cnc3[nH]cc(C(=O)NC(C)C)c3n2)[C@@H](OC)C1` [Example 302, 2-{[(3S,4R)-1-acryloyl-3-methoxypiperidin-4-yl]amino}-N-(propan-2-yl)-5H-pyrrolo[2,3-b]pyrazine-7-carboxamide], the results for the IC50 in experiment [1] and in experiment [2] were 1310 nM and 264 nM, respectively.

For the compound `C=CC(=O)N1CCN(c2cnc3[nH]cc(C(=O)NC(C)C)c3n2)C[C@@H]1CC(C)C` [Example 303, 2-[(3S)-4-acryloyl-3-(2-methylpropyl)piperazin-1-yl]-N-(propan-2-yl)-5H-pyrrolo[2,3-b]pyrazine-7-carboxamide], the IC50 in experiment [1] turned out to be 2730 nM; in experiment [2] (Homo sapiens, PBMC), 294 nM.

Consider `C=CC(=O)N1CC[C@@H](Nc2cnc3[nH]cc(C(=O)NC(C)C)c3n2)[C@H](OC)C1` [Example 305, 2-{[(3R,4R)-1-acryloyl-3-methoxypiperidin-4-yl]amino}-N-(propan-2-yl)-5H-pyrrolo[2,3-b]pyrazine-7-carboxamide], for which the figures for the IC50 in experiment [1] and in experiment [2] were 2640 nM and 744 nM, respectively.

Take `C=CC(=O)N1CC[C@H](Nc2cnc3[nH]cc(C(=O)NC(C)C)c3n2)[C@H](OC)C1` [Example 317, 2-{[(3R,4S)-1-acryloyl-3-methoxypiperidin-4-yl]amino}-N-(propan-2-yl)-5H-pyrrolo[2,3-b]pyrazine-7-carboxamide]: the values for the IC50 in experiment [1] and in experiment [2] were 420 nM and 243 nM, respectively.

Consider `C=CC(=O)N1CCC(C)(Nc2cnc3[nH]cc(C(=O)NC(C)C)c3n2)CC1` [Example 318, 2-[(1-acryloyl-4-methylpiperidin-4-yl)amino]-N-(propan-2-yl)-5H-pyrrolo[2,3-b]pyrazine-7-carboxamide], for which the IC50 in experiment [1] is 2080 nM; in experiment [2], 260 nM.

As for `C=CC(=O)N1CC[C@@H](Nc2cnc3[nH]cc(C(=O)NC(C)C)c3n2)[C@@H](F)C1` [Example 320, 2-{[(3S,4R)-1-acryloyl-3-fluoropiperidin-4-yl]amino}-N-(propan-2-yl)-5H-pyrrolo[2,3-b]pyrazine-7-carboxamide], the 50% inhibitory concentration (IC50) in experiment [1] was determined as 343 nM; in experiment [2], 61.1 nM.

With `C=CC(=O)N1CC(Nc2cnc3[nH]ccc3n2)C1` [Example 337, 1-(3-((5H-Pyrrolo[2,3-b]pyrazin-2-yl)amino)azetidin-1-yl)prop-2-en-1-one], the IC50 in experiment [1] is 631 nM; in experiment [2] (Homo sapiens, PBMC) it was 237 nM.

On to `C=CC(=O)N1CCC(Oc2cnc3[nH]cc(C(=O)NC(C)C)c3n2)CC1` [Example 339, 2-((1-Acryloylpiperidin-4-yl)oxy)-N-isopropyl-5H-pyrrolo[2,3-b]pyrazine-7-carboxamide], for which the concentration for half-maximal inhibition (IC50) in experiment [1] was 502 nM; in experiment [2], 80.6 nM.

Broadly, the IC50 is the midpoint of a concentration-inhibition curve.
